In patent US10479814B2, “Adenosine receptor activation reagent and the uses of thereof” (Zhejiang Subtropical Crops Research Institute, priority 2014, dated 2019):

What was measured:
Type in all cases: in vivo
[1] = test system: mouse kidney ischemia reperfusion; assay: kidney ischemia reperfusion: electron microscope observation of renal tubular epithelial cells
Protocol: Male C57BL/6 mice 20-25 g, after one week of adaptive feeding to the animals, were randomly divided into eight groups: sham-operation group, IR group, HEA 5 mg/kg group, HEA 7 mg/kg group, HEA 10 mg/kg group, DPCPX (1 mg/kg) group, DPCPX (1 mg/kg)+HEA (5 mg/kg) group and DPCPX (1 mg/kg)+HEA (7.5 mg/kg) group. The mouse was weighed before operation, then peritoneally injected with pentobarbital sodium 50 mg/kg to anaesthetize the mouse, abdomen was opened by ventromedial incision, blunt dissection and the kidney pedicle was sufficiently exposed, renal ischemia was induced by clapping two side kidney pedicle with non-invasive bulldog clamp, the color of kidney change from bright red to purple black immediately, determination method of success of the experiment model can refer to the methods in literature 7 and 8. At time of 30 min of ischemia the bulldog clamp was loosened, the perfuse was restored, the color of kidney changed gradually from dark red to bright red, showing re perfusion was successful. The wound was stitched. The animals were freely fed water and food. In the sham-operation group, the mice only received operation of abdomen open, kidney pedicle and abdomen suture. The kidney IR mode were made for the mice in the remaining groups. In each drug group, before 15 minute of ischemia, the drug with corresponding concentration was speritoneally injected, in drug combination group, 15 minutes before ischemia, the drugs were given simultaneously. The section was observed using Transmission Electron Microscope ([…], from Hitachi Co. limited). The observation was conducted in Electron Microscoper Room of Wenzhou Medical University.

[2] = test system: myeloperoxidase (MPO) activity in mouse renal cortex; assay: kidney ischemia reperfusion: MPO analysis; conditions: vs IR group, P<0.05; HEA 5 and 7.5 mg/kg; DPCPX 1 mg/kg; DPCPX 1 mg/kg+HEA 5 mg/kg
Protocol: Male C57BL/6 mice 20-25 g, after one week of adaptive feeding to the animals, were randomly divided into eight groups: sham-operation group, IR group, HEA 5 mg/kg group, HEA 7 mg/kg group, HEA 10 mg/kg group, DPCPX (1 mg/kg) group, DPCPX (1 mg/kg)+HEA (5 mg/kg) group and DPCPX (1 mg/kg)+HEA (7.5 mg/kg) group. The mouse was weighed before operation, then peritoneally injected with pentobarbital sodium 50 mg/kg to anaesthetize the mouse, abdomen was opened by ventromedial incision, blunt dissection and the kidney pedicle was sufficiently exposed, renal ischemia was induced by clapping two side kidney pedicle with non-invasive bulldog clamp, the color of kidney change from bright red to purple black immediately, determination method of success of the experiment model can refer to the methods in literature 7 and 8. At time of 30 min of ischemia the bulldog clamp was loosened, the perfuse was restored, the color of kidney changed gradually from dark red to bright red, showing re perfusion was successful. The wound was stitched. The animals were freely fed water and food. In the sham-operation group, the mice only received operation of abdomen open, kidney pedicle and abdomen suture. […] 9.2.6 Real time quantitative PCR analysis of gene expression of ICAM-1, TNF-α and IL-1β; the sequence of primer used in RT-PCR reaction system is as follow: […]

[3] = test system: mouse kidney ischemia reperfusion; assay: kidney ischemia reperfusion: kidney function test (Scr, BUN); conditions: for serum BUN level / serum Scr level: 24 h after ischemia reperfusion, vs IR group, ip pretreatment, HEA 5, 7.5, 10 mg/kg, DPCPX 1 mg/kg, DPCPX 1 mg/kg+HEA 7.5 mg/kg
Protocol: Male C57BL/6 mice 20-25 g, after one week of adaptive feeding to the animals, were randomly divided into eight groups: sham-operation group, IR group, HEA 5 mg/kg group, HEA 7 mg/kg group, HEA 10 mg/kg group, DPCPX (1 mg/kg) group, DPCPX (1 mg/kg)+HEA (5 mg/kg) group and DPCPX (1 mg/kg)+HEA (7.5 mg/kg) group. The mouse was weighed before operation, then peritoneally injected with pentobarbital sodium 50 mg/kg to anaesthetize the mouse, abdomen was opened by ventromedial incision, blunt dissection and the kidney pedicle was sufficiently exposed, renal ischemia was induced by clapping two side kidney pedicle with non-invasive bulldog clamp, the color of kidney change from bright red to purple black immediately, determination method of success of the experiment model can refer to the methods in literature 7 and 8. At time of 30 min of ischemia the bulldog clamp was loosened, the perfuse was restored, the color of kidney changed gradually from dark red to bright red, showing re perfusion was successful. The wound was stitched. The animals were freely fed water and food. In the sham-operation group, the mice only received operation of abdomen open, kidney pedicle and abdomen suture. The kidney IR mode were made for the mice in the remaining groups. In each drug group, before 15 minute of ischemia, the drug with corresponding concentration was speritoneally injected, in drug combination group, 15 minutes before ischemia, the drugs were given simultaneously. At 24 hours after Reperfussion, the mouse was again anaesthetized, obtaining the venous blood. Using full-automatic biochemical analysis systems (Dimension Xpand plus, from Siemens AG), the Scr (serum creatinine) and BUN (blood urea nitrogen) levels were detected respectively by chrysolepic acid rate method and enzymatic rate.

[4] = test system: mouse kidney ischemia reperfusion; assay: kidney ischemia reperfusion: kidney histopathologic examination (HE); conditions: vs IR group, DPCPX 1 mg/kg; for renal tubulointerstitial impairment score: P<0.01, HEA 5, 7.5, 10 mg/kg, DPCPX 1 mg/kg+HEA 5 or 7.5 mg/kg; for kidney histopathological changes (HE×400): HEA groups printed as 2.5, 5, 7.5 mg/kg, DPCPX+HEA 5 or 7.5 mg/kg
Protocol: Male C57BL/6 mice 20-25 g, after one week of adaptive feeding to the animals, were randomly divided into eight groups: sham-operation group, IR group, HEA 5 mg/kg group, HEA 7 mg/kg group, HEA 10 mg/kg group, DPCPX (1 mg/kg) group, DPCPX (1 mg/kg)+HEA (5 mg/kg) group and DPCPX (1 mg/kg)+HEA (7.5 mg/kg) group. The mouse was weighed before operation, then peritoneally injected with pentobarbital sodium 50 mg/kg to anaesthetize the mouse, abdomen was opened by ventromedial incision, blunt dissection and the kidney pedicle was sufficiently exposed, renal ischemia was induced by clapping two side kidney pedicle with non-invasive bulldog clamp, the color of kidney change from bright red to purple black immediately, determination method of success of the experiment model can refer to the methods in literature 7 and 8. At time of 30 min of ischemia the bulldog clamp was loosened, the perfuse was restored, the color of kidney changed gradually from dark red to bright red, showing re perfusion was successful. The wound was stitched. The animals were freely fed water and food. In the sham-operation group, the mice only received operation of abdomen open, kidney pedicle and abdomen suture. The kidney IR mode were made for the mice in the remaining groups. In each drug group, before 15 minute of ischemia, the drug with corresponding concentration was speritoneally injected, in drug combination group, 15 minutes before ischemia, the drugs were given simultaneously. At 24 hours after reperfusion, the mouse was anaesthetized again, the kidney specimen was obtained. The kidney specimen is fixed by 10% formaldehyde solution, paraffin embedded, sectioned, hematoxylin-eosin staining (HE), and the kidney histopathological change was observed under optical microscope.

Row | SMILES | renal tubular epithelial cell ultrastructure (electron microscope) ([1]; DPCPX 1 mg/kg alone or DPCPX 1 mg/kg+HEA 5 or 7.5 mg/kg before ischemia) | myeloperoxidase (MPO) activity in renal cortex [2] | serum BUN level [3] | serum Scr level [3] | renal tubulointerstitial impairment score [4] | kidney histopathological changes (HE×400) [4] | renal tubular epithelial cell ultrastructure (electron microscope) ([1]; HEA 5 mg/kg group) | renal tubular epithelial cell ultrastructure (electron microscope) ([1]; HEA 7.5 mg/kg group) | renal tubular epithelial cell ultrastructure (electron microscope) ([1]; HEA 10 mg/kg group) | protective effect to mouse kidney ischemia reperfusion impairment ([3]; by serum Scr and BUN level and kidney histopathological change)
1 | CCCn1c(=O)c2[nH]c(C3CCCC3)nc2n(CCC)c1=O [DPCPX, reference compound] | essentially no mitochondria with complete structure | significantly increase MPO activity | significantly increase | significantly increase | significantly increase renal tubulointerstitial impairment scores | aggravate tissue necrosis |  |  |  | 
2 | OCCNc1ncnc2c1ncn2[C@@H]1O[C@H](CO)[C@@H](O)[C@H]1O [HEA, N(6)-(2-hydroxyethyl)-adenosine] |  | significantly reduced | significantly reduce | significantly reduce | significantly reduced | significantly reduced compared with IR group | the entirety is improved compared with ischemia reperfusion group | most of the mitochondria are normal | mitochondria protection is more clear than the IR group | has protective effect to mouse kidney ischemia reperfusion impairment
